Experimental data published in PubChem BioAssay AID1919009 (Molecular Pharmacology Branch, DTP, NCI, 2023).
Blank lines part the entries; values can stand above or below the molecule they belong to.

Tested on: K24384-001-R-PDC complex spheroid growth
Assay: Anticancer human tumor K24384-001-R-PDC patient-derived pancreatic adenocarcinoma cell line growth inhibition [AhR]
Settings: for IC50: curve of first compound; for viability, T/C: stronger effect = lower value
Summary of the method: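 Spheroids combined tumor cells with HUVEC endothelial cells and human MSCs as stroma. AhR antagonists were paired with standard or investigational drugs, each dosed in half-log steps down from near clinical Cmax, or from 10 microM where Cmax was unknown.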
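Throughout, for viability, T/C: percent of DMSO vehicle-treated spheroid viability set as 100%.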

IC50 (second compound 0.1 µM): 8.69 nM
IC50 (second compound 0.316 µM): 29.2 nM
IC50 (second compound 1 µM): 8.68 nM
IC50 (second compound 3.16 µM): 19.8 nM
IC50 (second compound 10 µM): 68 nM
Compound: CCc1c2c(nc3ccc(O)cc13)-c1cc3c(c(=O)n1C2)COC(=O)[C@]3(O)CC + Cc1ccccc1N=Nc1ccc(NC(=O)c2ccnn2C)c(C)c1
viability, T/C (second compound 0.1 µM, first compound 0.000949 µM): 74.2%
viability, T/C (second compound 0.1 µM, first compound 0.003 µM): 72.8%
viability, T/C (second compound 0.1 µM, first compound 0.00949 µM): 48.1%
viability, T/C (second compound 0.1 µM, first compound 0.03 µM): 48.9%
viability, T/C (second compound 0.1 µM, first compound 0.0949 µM): 49.8%
viability, T/C (second compound 0.1 µM, first compound 0.3 µM): 36.7%
viability, T/C (second compound 0.316 µM, first compound 0.000949 µM): 96.2%
viability, T/C (second compound 0.316 µM, first compound 0.003 µM): 77.7%
viability, T/C (second compound 0.316 µM, first compound 0.00949 µM): 58.1%
viability, T/C (second compound 0.316 µM, first compound 0.03 µM): 51.6%
viability, T/C (second compound 0.316 µM, first compound 0.0949 µM): 41.9%
viability, T/C (second compound 0.316 µM, first compound 0.3 µM): 31.4%
viability, T/C (second compound 1 µM, first compound 0.000949 µM): 77.4%
viability, T/C (second compound 1 µM, first compound 0.003 µM): 100%
viability, T/C (second compound 1 µM, first compound 0.00949 µM): 46.7%
viability, T/C (second compound 1 µM, first compound 0.03 µM): 45.2%
viability, T/C (second compound 1 µM, first compound 0.0949 µM): 47.6%
viability, T/C (second compound 1 µM, first compound 0.3 µM): 30.8%
viability, T/C (second compound 3.16 µM, first compound 0.000949 µM): 73.3%
viability, T/C (second compound 3.16 µM, first compound 0.003 µM): 62%
viability, T/C (second compound 3.16 µM, first compound 0.00949 µM): 55.6%
viability, T/C (second compound 3.16 µM, first compound 0.03 µM): 46.1%
viability, T/C (second compound 3.16 µM, first compound 0.0949 µM): 41.5%
viability, T/C (second compound 3.16 µM, first compound 0.3 µM): 30%
viability, T/C (second compound 10 µM, first compound 0.000949 µM): 94%
viability, T/C (second compound 10 µM, first compound 0.003 µM): 82%
viability, T/C (second compound 10 µM, first compound 0.00949 µM): 64.3%
viability, T/C (second compound 10 µM, first compound 0.03 µM): 65.7%
viability, T/C (second compound 10 µM, first compound 0.0949 µM): 48.6%
viability, T/C (second compound 10 µM, first compound 0.3 µM): 29.3%

IC50 (second compound 0.1 µM): > 10000 nM
IC50 (second compound 0.316 µM): > 10000 nM
IC50 (second compound 1 µM): > 10000 nM
IC50 (second compound 3.16 µM): 3160 nM
IC50 (second compound 10 µM): > 10000 nM
Compound: COc1cc(Nc2ncc3c(n2)-c2ccc(Cl)cc2C(c2c(F)cccc2OC)=NC3)ccc1C(=O)O + Cc1ccccc1N=Nc1ccc(NC(=O)c2ccnn2C)c(C)c1
viability, T/C (second compound 0.1 µM, first compound 0.0316 µM): 87.8%
viability, T/C (second compound 0.1 µM, first compound 0.1 µM): 71.2%
viability, T/C (second compound 0.1 µM, first compound 0.316 µM): 76%
viability, T/C (second compound 0.1 µM, first compound 1 µM): 48.9%
viability, T/C (second compound 0.1 µM, first compound 3.16 µM): 49.6%
viability, T/C (second compound 0.1 µM, first compound 10 µM): 51.5%
viability, T/C (second compound 0.316 µM, first compound 0.0316 µM): 79.8%
viability, T/C (second compound 0.316 µM, first compound 0.1 µM): 68.1%
viability, T/C (second compound 0.316 µM, first compound 0.316 µM): 68.7%
viability, T/C (second compound 0.316 µM, first compound 1 µM): 60.6%
viability, T/C (second compound 0.316 µM, first compound 3.16 µM): 52.6%
viability, T/C (second compound 0.316 µM, first compound 10 µM): 54.1%
viability, T/C (second compound 1 µM, first compound 0.0316 µM): 79.5%
viability, T/C (second compound 1 µM, first compound 0.1 µM): 69.3%
viability, T/C (second compound 1 µM, first compound 0.316 µM): 60.6%
viability, T/C (second compound 1 µM, first compound 1 µM): 48.7%
viability, T/C (second compound 1 µM, first compound 3.16 µM): 52.6%
viability, T/C (second compound 1 µM, first compound 10 µM): 60.1%
viability, T/C (second compound 3.16 µM, first compound 0.0316 µM): 64.7%
viability, T/C (second compound 3.16 µM, first compound 0.1 µM): 64.5%
viability, T/C (second compound 3.16 µM, first compound 0.316 µM): 69.2%
viability, T/C (second compound 3.16 µM, first compound 1 µM): 49.2%
viability, T/C (second compound 3.16 µM, first compound 3.16 µM): 54.9%
viability, T/C (second compound 3.16 µM, first compound 10 µM): 57.3%
viability, T/C (second compound 10 µM, first compound 0.0316 µM): 90.6%
viability, T/C (second compound 10 µM, first compound 0.1 µM): 84.8%
viability, T/C (second compound 10 µM, first compound 0.316 µM): 85.5%
viability, T/C (second compound 10 µM, first compound 1 µM): 74.2%
viability, T/C (second compound 10 µM, first compound 3.16 µM): 75.4%
viability, T/C (second compound 10 µM, first compound 10 µM): 70.3%
